The values below are quoted from earlier work in patent publication US4650854A, “Amide analogs of calcitonin” (USV Pharmaceutical Corporation, priority 1985, dated 1987).

The conditions of the series: Monikawa et al., Experientia 32(9), 1104-1106 (1976).

Where no end group is shown, it is not given here.

Turning to “(1,7-α-L-aminosuberic acid)eel calcitonin”, the hypocalcemic potency result was “about 3400 Iu/mg”.

On to “eel calcitonin (CSNLSTCVLGKLSQELHKLQTYPRTDVGAGTP; ends and bridges not checked; cysteine pairing not given here; UniProt P01262 1-32, looked up) [synthetic eel calcitonin, synthetic eel calcitonin, natural 32 amino acid calcitonin peptide]”, for which the hypocalcemic potency entry is reported as “around 4300 Iu/mg”.
